Test results: ChEMBL document CHEMBL1201862, “PubChem BioAssay data set” (2004)
Calls of active or inactive are those of the source. Rule as the data show it: actives have a measured IC50 and inactives only a lower limit.

Key:
Format in all cases: functional
[1] = biological target: T1, Sentrin-specific protease 8 (Homo sapiens, UniProt Q96LD8); experiment: inhibition of human SENP8 cleavage activity – biochemical, luminescence, SAR follow-up (AID 504501)
T1 sequence (Q96LD8 whole entry): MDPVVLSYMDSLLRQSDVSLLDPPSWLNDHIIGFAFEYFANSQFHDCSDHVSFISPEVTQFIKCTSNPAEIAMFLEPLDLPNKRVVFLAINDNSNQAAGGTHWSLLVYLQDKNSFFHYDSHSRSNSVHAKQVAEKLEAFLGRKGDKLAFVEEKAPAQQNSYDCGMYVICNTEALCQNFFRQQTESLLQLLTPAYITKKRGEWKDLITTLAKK

[2] = biological target: T2, Sentrin-specific protease 6 (Homo sapiens, UniProt Q9GZR1); experiment: SAR Analysis of small molecule inhibitors of Sentrin-specific protease 6 (SENP6) using a Luminescent assay. [Related pubchem assays (depositor defined):AID2582, AID2599]
T2 sequence (Q9GZR1 whole entry): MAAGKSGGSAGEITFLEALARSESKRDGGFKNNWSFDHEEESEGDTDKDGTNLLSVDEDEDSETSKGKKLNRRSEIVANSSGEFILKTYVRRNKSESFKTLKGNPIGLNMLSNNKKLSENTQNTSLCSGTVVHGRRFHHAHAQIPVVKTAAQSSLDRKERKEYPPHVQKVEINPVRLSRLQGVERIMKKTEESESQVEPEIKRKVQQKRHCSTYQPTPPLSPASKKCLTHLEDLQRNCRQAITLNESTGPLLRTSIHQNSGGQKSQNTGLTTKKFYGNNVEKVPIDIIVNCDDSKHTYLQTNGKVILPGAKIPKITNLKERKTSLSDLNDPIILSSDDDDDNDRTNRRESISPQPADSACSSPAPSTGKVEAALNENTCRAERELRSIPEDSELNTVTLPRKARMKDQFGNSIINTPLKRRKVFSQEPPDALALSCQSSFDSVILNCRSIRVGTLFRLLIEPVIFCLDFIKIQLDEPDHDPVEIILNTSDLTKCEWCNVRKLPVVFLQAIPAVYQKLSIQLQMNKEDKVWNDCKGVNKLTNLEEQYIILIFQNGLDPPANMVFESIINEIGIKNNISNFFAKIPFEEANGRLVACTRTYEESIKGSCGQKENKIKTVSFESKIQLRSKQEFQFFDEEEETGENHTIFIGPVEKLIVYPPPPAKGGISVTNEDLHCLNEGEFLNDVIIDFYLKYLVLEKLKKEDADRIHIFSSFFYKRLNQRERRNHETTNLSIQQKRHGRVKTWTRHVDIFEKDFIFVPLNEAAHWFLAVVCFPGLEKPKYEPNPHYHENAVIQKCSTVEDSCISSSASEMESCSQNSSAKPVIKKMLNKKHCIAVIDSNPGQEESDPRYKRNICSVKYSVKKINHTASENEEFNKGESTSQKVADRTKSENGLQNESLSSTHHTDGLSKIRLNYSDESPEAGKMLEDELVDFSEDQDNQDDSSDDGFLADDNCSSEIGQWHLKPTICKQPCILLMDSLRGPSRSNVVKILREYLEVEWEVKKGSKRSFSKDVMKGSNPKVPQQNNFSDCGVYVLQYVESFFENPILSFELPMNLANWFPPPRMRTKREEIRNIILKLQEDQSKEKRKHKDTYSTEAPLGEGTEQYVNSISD

Caspase-3 = biological target: T3, Caspase-3 (Homo sapiens, UniProt P42574); experiment: SAR Analysis of small molecule inhibitors of Sentrin-specific proteases (SENPs) using a Caspase-3 Selectivity assay. [Related pubchem assays (depositor defined):AID2540, AID2599, AID434973, AID489001]
T3 sequence (P42574 whole entry): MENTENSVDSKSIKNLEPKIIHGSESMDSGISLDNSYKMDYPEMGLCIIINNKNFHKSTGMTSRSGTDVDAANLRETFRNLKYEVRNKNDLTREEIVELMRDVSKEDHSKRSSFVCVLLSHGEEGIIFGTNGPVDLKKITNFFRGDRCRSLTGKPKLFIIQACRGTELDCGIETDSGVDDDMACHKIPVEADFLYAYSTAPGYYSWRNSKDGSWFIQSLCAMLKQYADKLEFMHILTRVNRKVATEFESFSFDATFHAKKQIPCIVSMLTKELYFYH

[3] = biological target: T4, Sentrin-specific protease 7 (Homo sapiens, UniProt Q9BQF6); experiment: inhibition of human SENP7 cleavage activity – biochemical, luminescence, SAR follow-up (AID 504497)
T4 sequence (Q9BQF6 whole entry): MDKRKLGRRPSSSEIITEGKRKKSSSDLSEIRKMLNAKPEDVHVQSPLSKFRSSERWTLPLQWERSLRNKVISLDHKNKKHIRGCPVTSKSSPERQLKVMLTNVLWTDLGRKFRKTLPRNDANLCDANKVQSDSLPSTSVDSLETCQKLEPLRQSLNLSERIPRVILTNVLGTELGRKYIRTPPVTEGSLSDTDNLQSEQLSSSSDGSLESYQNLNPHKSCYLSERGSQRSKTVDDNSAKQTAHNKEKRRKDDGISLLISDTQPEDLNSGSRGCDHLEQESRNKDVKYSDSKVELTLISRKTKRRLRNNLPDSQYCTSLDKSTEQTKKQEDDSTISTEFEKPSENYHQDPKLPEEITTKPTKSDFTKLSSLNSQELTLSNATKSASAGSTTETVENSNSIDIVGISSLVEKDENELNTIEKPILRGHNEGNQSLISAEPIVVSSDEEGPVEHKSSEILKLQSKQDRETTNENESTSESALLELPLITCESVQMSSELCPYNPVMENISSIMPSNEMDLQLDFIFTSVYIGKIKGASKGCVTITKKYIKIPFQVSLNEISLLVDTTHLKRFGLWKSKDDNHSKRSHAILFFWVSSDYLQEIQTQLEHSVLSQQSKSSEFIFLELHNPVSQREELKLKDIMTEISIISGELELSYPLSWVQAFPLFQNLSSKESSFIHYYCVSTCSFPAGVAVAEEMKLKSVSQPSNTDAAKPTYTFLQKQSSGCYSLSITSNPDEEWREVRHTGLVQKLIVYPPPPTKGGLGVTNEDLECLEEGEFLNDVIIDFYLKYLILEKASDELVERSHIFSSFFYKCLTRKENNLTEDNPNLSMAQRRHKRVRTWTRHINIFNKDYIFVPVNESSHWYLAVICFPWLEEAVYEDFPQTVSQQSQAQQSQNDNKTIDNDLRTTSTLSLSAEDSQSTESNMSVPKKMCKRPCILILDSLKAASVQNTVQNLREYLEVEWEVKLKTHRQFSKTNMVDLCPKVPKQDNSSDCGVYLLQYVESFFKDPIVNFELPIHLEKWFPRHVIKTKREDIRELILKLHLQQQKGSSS

Measured: IC50

Clc1cccc(/N=C/c2ccc(OC3CSC3)cc2)c1
inactive: [1] > 99 µM | [2] > 99 µM | Caspase-3 > 99 µM | [3] > 99 µM
